Measured values taken from ChEMBL document CHEMBL2074022, “Penetration of endogenous steroid hormones corticosterone, cortisol, aldosterone and progesterone into the brain is enhanced in mice deficient for both mdr1a and mdr1b P-glycoproteins” (J Neuroendocrinol, 2002).

Tests used:
Conditions in all cases: in vivo
[1] = target: P-glycoprotein 1 and 3 (MDR1a/MDR1b) (Mus musculus, UniProt P21447+P06795); assay: (§1) TP_TRANSPORTER: increase in testes concentration in mdr1a/1b(-/-) mouse; assay type: functional, organism-based, Testis
[2] = target: T1, ATP-dependent translocase ABCB1 (Mus musculus, UniProt P21447); assay: TP_TRANSPORTER: increase in brain concentration in mdr1a/1b(-/-) mouse; assay type: functional, organism-based
T1 sequence (P21447 whole entry): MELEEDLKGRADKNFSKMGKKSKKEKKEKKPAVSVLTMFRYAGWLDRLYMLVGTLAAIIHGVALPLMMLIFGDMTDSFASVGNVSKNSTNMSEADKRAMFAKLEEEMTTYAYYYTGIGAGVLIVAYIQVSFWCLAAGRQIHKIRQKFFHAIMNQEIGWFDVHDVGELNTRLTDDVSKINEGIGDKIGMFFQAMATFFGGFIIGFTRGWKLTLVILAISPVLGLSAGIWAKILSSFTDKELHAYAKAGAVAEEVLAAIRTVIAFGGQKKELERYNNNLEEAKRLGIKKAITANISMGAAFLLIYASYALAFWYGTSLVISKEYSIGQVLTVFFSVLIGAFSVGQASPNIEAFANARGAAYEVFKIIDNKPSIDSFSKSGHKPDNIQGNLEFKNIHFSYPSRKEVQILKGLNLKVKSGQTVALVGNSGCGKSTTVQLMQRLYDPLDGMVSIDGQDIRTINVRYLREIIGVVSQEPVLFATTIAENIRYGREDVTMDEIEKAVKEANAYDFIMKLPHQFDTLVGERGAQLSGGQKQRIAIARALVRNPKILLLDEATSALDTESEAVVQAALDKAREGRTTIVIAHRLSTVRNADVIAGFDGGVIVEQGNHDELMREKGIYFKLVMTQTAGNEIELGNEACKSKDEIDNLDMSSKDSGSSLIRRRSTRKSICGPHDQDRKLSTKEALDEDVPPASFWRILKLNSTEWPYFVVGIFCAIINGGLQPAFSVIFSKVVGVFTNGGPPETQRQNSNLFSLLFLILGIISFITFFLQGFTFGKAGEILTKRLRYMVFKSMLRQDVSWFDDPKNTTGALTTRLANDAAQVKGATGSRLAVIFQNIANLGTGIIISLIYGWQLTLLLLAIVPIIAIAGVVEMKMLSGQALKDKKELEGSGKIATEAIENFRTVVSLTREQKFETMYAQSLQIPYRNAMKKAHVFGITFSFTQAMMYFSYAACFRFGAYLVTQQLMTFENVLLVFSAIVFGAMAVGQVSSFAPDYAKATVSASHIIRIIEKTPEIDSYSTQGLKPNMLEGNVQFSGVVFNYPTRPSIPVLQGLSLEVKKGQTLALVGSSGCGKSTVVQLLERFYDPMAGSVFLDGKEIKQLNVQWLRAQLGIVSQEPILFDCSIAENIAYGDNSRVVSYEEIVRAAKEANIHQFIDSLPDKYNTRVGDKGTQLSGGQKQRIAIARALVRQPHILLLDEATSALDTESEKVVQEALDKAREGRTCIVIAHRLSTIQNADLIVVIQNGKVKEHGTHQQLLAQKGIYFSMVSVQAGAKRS

[3] = target: T1, ATP-dependent translocase ABCB1; assay: as §1; assay type: functional, organism-based, Testis

Row | Activity [1] | SMILES | Activity [2] | Activity [3]
1 | substrate [+] | C[C@]12CCC(=O)C=C1CC[C@@H]1[C@@H]2[C@@H](O)C[C@]2(C=O)[C@@H](C(=O)CO)CC[C@@H]12 [ALDOSTERONE] |  | 
2 | substrate [+] | C[C@]12CCC(=O)C=C1CC[C@@H]1[C@@H]2[C@@H](O)C[C@@]2(C)[C@H]1CC[C@]2(O)C(=O)CO [HYDROCORTISONE] |  | 
3 |  | CC(=O)[C@H]1CC[C@H]2[C@@H]3CCC4=CC(=O)CC[C@]4(C)[C@H]3CC[C@]12C [PROGESTERONE] | substrate [+] | substrate [+]
